Laboratory results published in US20230332232A1, “COMPOSITIONS AND METHODS FOR DIAGNOSING AND TREATING A DYSTONIA” (Duke University, priority 2020, published 2023).

System: wild-type (WT) murine embryonic fibroblasts (MEFs)
Assay: Untargeted LC/MS/MS proteomics of EVs from WT MEFs exposed 24 hours to drug, compared with untreated WT MEFs
Format: cell-based, mouse
Description: Methods for isolation and purification of exosomes and extracellular vesicles (EV) were extensively reviewed. Experiments were performed to arrive at a robust and reproducible protocol. The protocol used herein is that set forth in Théry et al, 2006, which is incorporated by reference for it teaching of this protocol. This protocol involves depleting serum-derived EVs from cell culture media by overnight ultracentrifugation and exchanging media for 1% FBS EV-depleted media. Media is then collected from cells following a 24-hour conditioning period and EVs are isolated by 18-hour ultracentrifugation at 100,000 g (FIG. 1A).
EVs were isolated from media of cultured murine embryonic fibroblasts (MEFs) prepared in-house according to protocols described by Xu 2005 from DYT1 knockin mice (Tor1a^delGAG/+) (Goodchild R E, et al. (2005) Neuron. 48:923-932) and littermate wild-type (WT) controls. The cultured MEFs from the DYT1 mice were exposed for 24 hours to Ritonavir (RTV) while the MEFs from WT mice were exposed to vehicle, ISRIB, or Salubrinal (SAL). The EVs isolated from these WT cells and DYT1 were characterized by untargeted proteomics and RNA-seq to identify differentially expressed proteins and RNAs as candidate biomarkers. Experimenter and Proteomics core staff were blinded to genotype of cell cultures throughout preparation and analysis phases. EV isolation was confirmed by Western immunoblot documenting presence of the exosomal marker (TSG101) and absence of the endoplasmic reticulum (ER) marker (CANX) (FIG. 1B (Cohort 1) and FIG. 1C (Cohort 2)).
Following the bicinchoninic acid assay (BCA) analysis and Western immunoblot of a portion of samples for QC, 11.6 μg-129.2 μg of EV protein lysates in RIPA buffer were sent to the Duke Proteomics and Metabolomics Shared Resource core facility for LC/MS/MS quantitative proteomic analysis. Samples were first normalized to 20 μg and spiked with undigested casein at a total of 40 fmol/μg, 80 fmol/μg, or 160 fmol/μg, then reduced with 10 mM dithiolthreitol for 30 minute at 80° C. and alkylated with 20 mM iodoacetamide for 30 minutes at room temperature. Next, the samples were supplemented with a final concentration of 1.2% phosphoric acid and 741 μL of S-Trap (Protifi) binding buffer (90% MeOH/100 mM […]). Proteins were trapped on the S-Trap, digested using 20 ng/μL sequencing grade trypsin (Promega) for 1 hour at 47° C., and eluted using 50 mM TEAB, followed by 0.2% FA, and lastly using 50% CAN/0.2% FA. All samples were then lyophilized to dryness and resuspended in 40 μL 1% TFA/2% acetonitrile containing 12.5 fmol/μL yeast alcohol dehydrogenase (ADH_YEAST). A QC Pool was created from 3 uL of each sample. All QC Pools were run periodically throughout the acquisition period.
Quantitative LC/MS/MS was performed on 2 μL of each sample, using a nanoAcquity UPLC system (Waters Corp) coupled to a Thermo Orbitrap Fusion Lumos high resolution accurate mass tandem mass spectrometer (Thermo) via a nanoelectrospray ionization source. Briefly, the sample was first trapped on a Symmetry C18 20 mm×180 μm trapping column (5 μL/min at 99.9/0.1 v/v water/acetonitrile), after which the analytical separation was performed using a 1.8 μm Acquity HSS T3 C18 75 μm×250 mm column (Waters Corp.) with a 90 minute linear gradient of 5% to 30% acetonitrile with 0.1% formic acid at a flow rate of 400 nanoliters/minute (nL/min) with a column temperature of 55° C. Data collection on the Fusion Lumos mass spectrometer was performed in a data-dependent acquisition (DDA) mode of acquisition with a r=120,000 (@ m/z 200) full MS scan from m/z 375-1500 with a target AGC value of 2e5 ions. MS/MS scans were acquired at Rapid scan rate (Ion Trap) with an AGC target of 5e3 ions and a max injection time of 100 ms. The total cycle time for MS and MS/MS scans was 2 seconds. A 20 second dynamic exclusion was employed to increase depth of coverage. The total analysis cycle time for each sample injection was approximately 2 hours. […]

Measured: ISRIB Direction Same as dE?

O=C(COc1ccc(Cl)cc1)NC1CCC(NC(=O)COc2ccc(Cl)cc2)CC1 (stereo not shown) [ISRIH]
yes: EV protein: 26S proteasome non-ATPase regulatory subunit 8 | EV protein: 60S [?] subunit biogenesis protein [?] homolog | EV protein: 116 kDa [?] small nuclear ribonucleoprotein component | EV protein: AP-3 complex subunit [?] | EV protein: ATP- binding cassette sub-family [?] member 1 | EV protein: ATP-dependent RNA helicase [?] | EV protein: Acetyl-CoA carboxylase 1 | EV protein: Acyl-protein thioesterase 2 | EV protein: Anaphase-promoting complex subunit 2 | EV protein: Anaphase-promoting complex subunit 4 | EV protein: Anaphase-promoting complex subunit 5 | EV protein: Anaphase-promoting complex subunit 7 | EV protein: Apolipoprotein M | EV protein: Cell [?] cycle protein [?] homolog | EV protein: Cell division cycle protein 27 homolog | EV protein: Coiled-coil domain-containing protein 22 | EV protein: Cullin-2 | EV protein: Cullin-5 | EV protein: Cullin-7 | EV protein: Cytosolic purine [?] -nucleotidase | EV protein: DNA [?] (r264) | EV protein: DNA [?] licensing factor MCM4 | EV protein: DNA ligase 1 | EV protein: DNA replication licensing factor MCM5 | EV protein: DNA replication licensing factor [?] | EV protein: DNA-directed RNA polymerase II subunit RPB1 | EV protein: DNA-directed RNA polymerase II subunit RPB2 | EV protein: DNA-directed RNA polymerase II subunit RPB3 | EV protein: DNA-directed RNA polymerase [?] subunit RPA2 | EV protein: DNA-directed RNA polymerases I, II, and III subunit RPABC3 | EV protein: DNA-directed RNA polymerases I, II, and III subunit [?] | EV protein: Developmentally-regulated GTP-binding protein 2 | EV protein: Double-strand-break repair protein rad21 homolog | EV protein: Dual specificity mitogen-activated protein kinase kinase 4 | EV protein: Dynactin subunit 4 | EV protein: E3 ubiquitin-protein ligase [?] | EV protein: Elongin-B | EV protein: Exosome complex exonuclease RRP44 | EV protein: Gamma-tubulin complex component 2 | EV protein: Glucose-6-phosphate 1-dehydrogenase [?] | EV protein: Glycosylated lysosomal membrane protein | EV protein: Glycylpeptide N-tetradecanoyltransferase 1 | EV protein: Golgi reassembly-stacking protein 2 | EV protein: Histone-arginine methyltransterase CARM1 | EV protein: Immunity-related GTPase family M protein 1 | EV protein: Interleukin enhancer-binding factor 3 | EV protein: Leucyl-cystinyl aminopeptidase | EV protein: Lysine-specific histone demethylase [?] | EV protein: Mediator [?] RNA polymerase II transcription subunit 23 | EV protein: Metastasis-associated protein [?] (r222) | EV protein: Metastasis-associated protein [?] (r261) | EV protein: Methyl-CpG-binding domain protein [?] | EV protein: Microtubule-associated protein [?] | EV protein: N-alpha-acetyltransferase 10 | EV protein: Nuclear [?] complex protein [?] | EV protein: Nuclear cap-binding protein subunit 1 | EV protein: NudC domain-containing protein 1 | EV protein: Phosphoribosyl pyrophosphate synthase-associated protein 1 | EV protein: Probable ubiquitin carboxyl-terminal hydrolase [?] | EV protein: Protein O-GlcNAcase | EV protein: Protein RMD5 homolog A | EV protein: Protein [?] 14 homolog | EV protein: Protein transport protein [?] | EV protein: Ran-binding protein 10 | EV protein: Ribosome biogenesis protein BOP1 | EV protein: Ribosome production factor 2 homolog | EV protein: Serine threonine-protein phosphatase 2A 56 kDa regulatory subunit gamma isoform | EV protein: Serine threonine-protein phosphatase 6 catalytic subinit | EV protein: Sorting nexin-1 | EV protein: Splicing factor 3B subunit 4 | EV protein: Structural maintenance of [?] protein 2 | EV protein: WASH complex subunit 5 | EV protein: WD repeat-containing protein [?] | EV protein: WW domain-binding protein 2 | EV protein: [?] 2 (r185) | EV protein: [?] (r186) | EV protein: [?] -1 (r187) | EV protein: [?] -1 (r232) | EV protein: [?] -conjucating enxyme [?] | EV protein: [?] -promoting complex subunit 1 | EV protein: [?] -related [?] -associated actin-dependent regulator [?] chromatin subfamily A member 5 | EV protein: [?] complex subunit 2 | EV protein: [?] kinase | EV protein: [?] repeat-containing protein 5A | EV protein: [?] small nuclear ribonucleoprotein 40 kDa protein | EV protein: [?] small nucleolar RNA-associated protein 15 homolog | EV protein: [?] ubiquitin-protein ligase [?] | EV protein: p21-activated protein kinase-interacting protein 1 | EV protein: transportin-3 | WT MEF EVs, protein: DNA replication licensing factor MCM6 | WT MEF EVs, protein: DNA-directed RNA polymerases I and III subunit RPAC1 | WT MEF EVs, protein: Protein arginine N-methyltransferase 3 | WT MEF EVs, protein: Scavenger receptor class B member 1 | WT MEF EVs, protein: Serine threonine-protein phosphatase 2A 55 kDa regulatory subunit B alpha isoform | WT MEF EVs, protein: Small nuclear ribonucleoprotein-associated protein B | WT MEF EVs, protein: WASH complex subunit 4 | WT MEF EVs, protein: WD repeat-containing protein 26
